Measurements from publication PMC8153426, “EfgA is a conserved formaldehyde sensor that leads to bacterial growth arrest in response to elevated formaldehyde” (PLoS Biology, 2021).

What was measured:
[1] = molecular target: T1, EfgA (Methylorubrum extorquens, UniProt P0DX96); assay: X-ray crystal structure of formaldehyde-soaked crystals, […] Å; type: binding
T1 construct: N-terminal His-tagged EfgA, homotetramer

[2] = molecular target: T2, EfgA (Methylorubrum extorquens, UniProt P0DX96); assay: microscale thermophoresis (Kd), confirmed by mITC; type: binding
T2 construct: recombinant EfgA with C-terminal 6X-His tag
T2 sequence (P0DX96 1-144): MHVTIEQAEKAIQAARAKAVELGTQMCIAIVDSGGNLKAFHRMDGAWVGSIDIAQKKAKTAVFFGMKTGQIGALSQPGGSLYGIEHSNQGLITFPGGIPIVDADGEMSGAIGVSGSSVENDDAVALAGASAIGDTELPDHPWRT
Excerpt: microscale thermophoresis (Kd), confirmed by mITC on EfgA | MST was used to both independently confirm the interaction of EfgA with formaldehyde and permit calculation of its affinity

[3] = molecular target: the molecule itself; assay: crystal structure; apo EfgA crystals (0.2 M potassium fluoride, 2.2 M ammonium sulfate, 10°C) and crystals with 16.6 mM formaldehyde (0.2 M KNO3, 2.2 M ammonium sulfate, 10°C); 4 molecules per asymmetric unit

## OCOCO [oxydimethanol]
[1]
  X-ray crystal structure of formaldehyde-soaked crystals, 1.83 Å: In three EfgA monomers, new densities were modeled as oxydimethanol

## C=O [formaldehyde]
[2]
  Kd: 8.01 ± 3.5 mM

B1: EfgA (Mext_4158, DUF336 protein) from Methylorubrum extorquens PA1, N-terminal His-tagged derivative (natural protein)
chain: MHVTIEQAEKAIQAARAKAVELGTQMCIAIVDSGGNLKAFHRMDGAWVGSIDIAQKKAKTAVFFGMKTGQIGALSQPGGSLYGIEHSNQGLITFPGGIPIVDADGEMSGAIGVSGSSVENDDAVALAGASAIGDTELPDHPWRT
notes: EfgA, product of Mext_4158 of Methylorubrum extorquens PA1; single-domain 144 amino acid protein with a DUF336 domain; Residue numbers S114, D121, K57 are said to correspond to the native EfgA protein; The simulations count 134 EfgA residues in the structure against 144 in the gene product; also called EfgA^WT; enhanced formaldehyde growth protein A; not shown: His6 (thrombin cleavable), …
[3]
  stoichiometry N: 4
